Patent US20020090352A1, “Compositions and methods for use in modulating immune system function” (priority 2000, published 2002)
“Also recorded” adds a separate entry of the source.

Legend:
[1] = test system: immature LC (Langerhans cells); experiment: Apoptosis of immature LC, flow cytometry of PI stained nuclei (sub 2N particles) / annexin V; format: cell-based, human; conditions: for inhibition of retinoid-induced apoptosis / cell death of immature LC / synergy with the pan-RXR agonist SR11237 to induce LC death / induction of apoptosis / death of immature LC by the substance on its own: result in words; for induction of apoptosis / death of immature LC by the substance on its own: no TNFα
[2] = test system: immature LC (Langerhans cells); experiment: Activation of immature LC: HLA-DR and CD86 expression by flow cytometry; format: cell-based, human; design: class II or CD86 upregulation on immature LC: dose or concentration left out as unconfirmed; conditions: for activation of immature LC (class II / CD86, DRhi-CD86hi) in the presence of TNFα: TNFα 1-10 ng/ml
Method: Immature LC were cultured with retinol or vehicle and/or TNFα for 40 h. Cells were washed and incubated with HLA-DR-FITC and CD86-PE or isotype controls for 15 min at 4° C. 10^4 events were then analyzed with a FACScalibur (Becton Dickinson) using CellQuest software (Becton Dickinson). % are given for DRhi CD86hi cells gated as indicated. Data are representative of three experiments on different donors.
FIG. 3A: Day 6 immature LC were cultured for 40 h with TNFα and/or retinoids or vehicle as indicated. Cells were washed and stained with HLA-DR-FITC and CD86-PE or isotype controls for 15 min at 4° C. 10^4 events were then analyzed with a FACScalibur (Becton Dickinson) using CellQuest software (Becton Dickinson). Data are given for DRhi/CD86 hi cells gated as indicated, and are representative of 10 experiments on different donors.
Percentages of DRhi/CD86 hi cells are represented and results are expressed as the mean±SD of at last three experiments on different donors.
Flow Cytometry Analysis. 1×10^5 cells were incubated in 96-well plates (Becton Dickinson Labware, Franklin Lakes, N.J.) for 15 min at 4 ° C. in PBS, 2% human AB serum, and 0.01 M NaN3, with FITC-conjugated anti-DR (Immunotech, Marseille, France) and PE-conjugated CD86 (Pharmingen, San Diego, Calif.) at the appropriate concentration, or with control isotype-matched irrelevant mAbs at the same concentration. After washing, 10^4 events were analyzed with a FACScalibur (Becton Dickinson Immunocytometry Systems, Mountain View, Calif.) using CellQuest software.

RARα AF2 = biological target: T1, RARα AF2 (Homo sapiens, UniProt P10276); conditions: retinoid activity, reporter cells; cited from earlier work; note: key: '+' = agonist; '(+)' = weak agonist; '−' = antagonist; '0' = absence of agonist and antagonist activities
T1 construct: expressed in transfected cells
T1 sequence (P10276 183-417 limits assumed): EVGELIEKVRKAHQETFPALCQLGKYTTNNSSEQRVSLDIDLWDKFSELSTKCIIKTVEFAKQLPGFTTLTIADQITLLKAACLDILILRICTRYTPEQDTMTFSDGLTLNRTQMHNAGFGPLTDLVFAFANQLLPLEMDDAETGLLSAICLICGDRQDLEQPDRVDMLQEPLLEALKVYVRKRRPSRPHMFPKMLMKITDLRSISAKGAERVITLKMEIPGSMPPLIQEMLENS

RARβ AF2 = biological target: T2, RARβ AF2 (Homo sapiens, UniProt P10826); conditions: retinoid activity, reporter cells; cited from earlier work; note: key: '+' = agonist; '(+)' = weak agonist; '−' = antagonist; '0' = absence of agonist and antagonist activities
T2 construct: expressed in transfected cells
T2 sequence (P10826 183-417 limits assumed): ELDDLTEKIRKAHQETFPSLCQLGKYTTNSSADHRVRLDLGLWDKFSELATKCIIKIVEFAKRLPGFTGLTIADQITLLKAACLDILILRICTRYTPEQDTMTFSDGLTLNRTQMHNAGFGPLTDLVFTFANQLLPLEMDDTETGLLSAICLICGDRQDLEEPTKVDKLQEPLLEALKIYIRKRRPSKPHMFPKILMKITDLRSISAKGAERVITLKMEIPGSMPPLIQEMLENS

RARγ AF2 = biological target: T3, RARγ AF2 (Homo sapiens, UniProt P13631); conditions: retinoid activity, reporter cells; cited from earlier work; note: key: '+' = agonist; '(+)' = weak agonist; '−' = antagonist; '0' = absence of agonist and antagonist activities
T3 construct: expressed in transfected cells
T3 sequence (P13631 185-419 limits assumed): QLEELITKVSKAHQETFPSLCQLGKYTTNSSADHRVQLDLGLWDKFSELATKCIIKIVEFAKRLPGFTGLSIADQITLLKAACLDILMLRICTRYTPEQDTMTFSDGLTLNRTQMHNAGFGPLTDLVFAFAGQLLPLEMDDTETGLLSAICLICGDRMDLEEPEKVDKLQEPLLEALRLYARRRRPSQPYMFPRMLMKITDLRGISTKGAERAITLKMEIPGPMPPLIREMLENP

RXR AF2 = conditions: retinoid activity, reporter cells; cited from earlier work
RXRα homodimer [(RXR)2] = biological target: T4, RXRα homodimer [(RXR)2] (Homo sapiens, UniProt P19793); conditions: retinoid activity, transient transfection; cited from earlier work; note: key: '+' = agonist; '(+)' = weak agonist; '−' = antagonist; '0' = absence of agonist and antagonist activities
T4 construct: expressed in transfected cells
T4 sequence (P19793 1-462): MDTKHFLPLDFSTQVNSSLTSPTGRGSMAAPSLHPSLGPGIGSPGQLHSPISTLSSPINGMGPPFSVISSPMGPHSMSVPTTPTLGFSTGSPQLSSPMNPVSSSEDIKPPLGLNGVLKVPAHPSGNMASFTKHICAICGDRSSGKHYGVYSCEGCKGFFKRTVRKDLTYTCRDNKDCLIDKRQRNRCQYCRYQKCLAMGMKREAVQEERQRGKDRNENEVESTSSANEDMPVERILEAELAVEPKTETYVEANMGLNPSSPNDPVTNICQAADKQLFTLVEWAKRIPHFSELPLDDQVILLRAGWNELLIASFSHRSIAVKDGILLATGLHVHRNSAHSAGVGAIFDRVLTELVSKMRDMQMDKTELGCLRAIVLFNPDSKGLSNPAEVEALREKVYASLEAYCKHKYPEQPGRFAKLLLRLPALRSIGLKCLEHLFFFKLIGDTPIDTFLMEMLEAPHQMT

RARα-RXRα heterodimer = biological target: T5, RARα-RXRα heterodimer (Homo sapiens, UniProt P10276+P19793); conditions: retinoid activity, transient transfection; cited from earlier work
T5 construct: expressed in transfected cells
T5 sequence (P10276 1-462): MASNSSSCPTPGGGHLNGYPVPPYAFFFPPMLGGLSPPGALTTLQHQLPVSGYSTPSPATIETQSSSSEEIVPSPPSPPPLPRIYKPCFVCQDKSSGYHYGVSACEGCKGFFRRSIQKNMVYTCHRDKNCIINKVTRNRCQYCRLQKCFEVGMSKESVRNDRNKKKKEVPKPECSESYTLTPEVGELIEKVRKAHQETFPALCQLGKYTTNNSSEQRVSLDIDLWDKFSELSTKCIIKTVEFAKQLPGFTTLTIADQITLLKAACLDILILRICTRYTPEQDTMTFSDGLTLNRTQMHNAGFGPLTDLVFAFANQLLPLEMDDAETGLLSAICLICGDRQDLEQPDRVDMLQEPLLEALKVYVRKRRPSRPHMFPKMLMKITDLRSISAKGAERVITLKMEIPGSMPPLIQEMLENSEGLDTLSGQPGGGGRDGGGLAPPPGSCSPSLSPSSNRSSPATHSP
T5 sequence (P19793 1-462): T4 sequence (P19793 1-462)

[3] = 1 nM, two days in culture, mean ± SD
[4] = 10 nM, two days in culture, mean ± SD
[5] = 100 nM, two days in culture, mean ± SD
[6] = 1 μM, two days in culture, mean ± SD

Molecule | percentage of apoptotic (<2N) particles ([1]; 100 nM SR11237 + 1 nM ligand) | percentage of apoptotic (<2N) particles ([1]; 100 nM SR11237 + 10 nM ligand) | percentage of apoptotic (<2N) particles ([1]; 100 nM SR11237 + 100 nM ligand) | percentage of apoptotic (<2N) particles ([1]; 100 nM SR11237 + 1 μM ligand) | inhibition of retinoid-induced apoptosis / cell death of immature LC [1] | RARα AF2 (RARα AF2) | RARβ AF2 (RARβ AF2) | RARγ AF2 (RARγ AF2) | RXR AF2 (RXR AF2) | percentage of apoptotic (<2N) particles [1, 3] | percentage of apoptotic (<2N) particles [1, 4] | percentage of apoptotic (<2N) particles [1, 5] | percentage of apoptotic (<2N) particles [1, 6] | activation of immature LC (class II / CD86, DRhi-CD86hi) in the presence of TNFα ([2]; result in words) | also measured
CC1(C)CC=C(C#Cc2ccccc2)c2cc(/C=C/c3ccc(C(=O)O)cc3)ccc21 [Compound VIII] | ≦5% | ≦5% | ≦5% | ≦5% | inhibited retinol-induced cell death; also recorded: strongly inhibited | − | − | − | 0 |  |  |  |  |  | effect on Compound II / SR11237 synergy for TNFα-induced LC activation ([2]; result in words): inhibited; effect on TNFα-SR11237 synergism for LC activation ([2]; result in words): only a weak effect; effect on synergy between TNFα and retinol, tRA or Compound I on LC activation ([2]; result in words): inhibited; effect on 9cRA-induced LC activation ([2]; with TNFα, result in words): only partially blocked
CC1(C)CC=C(c2ccccc2)c2cc(/C=C/c3ccc(C(=O)O)cc3)ccc21 [Compound VII] | ≦5% | 5% | 20 ± 6% | 19 ± 7% |  | − | + | − | 0 | ≦5% | ≦5% | ≦5% | 10 ± 6% | weak effect | synergy with the pan-RXR agonist SR11237 to induce LC death [1]: synergized with the pan-RXR agonist to induce LC death
C=C(c1ccc(C(=O)O)cc1)c1cc2c(cc1C)C(C)(C)CC=C2C(C)C [Compound V, 4-[1-[5,6-Dihydro-3,5,5-trimethyl-8-(1-methylethyl)-2-naphthalenyl]ethenyl]benzoic acid] |  |  |  |  |  | − | − | − | + | ≦5% | ≦5% | ≦5% | ≦5% | also synergized with TNFα to activate LC | induction of apoptosis / death of immature LC by the substance on its own [1]: neither SR11237 (Table 3) nor BMS749 exhibited an apoptotic effect; (RXR)2 AF2 (RXRα homodimer [(RXR)2]): +; RARα-RXR DR5 (RARα-RXRα heterodimer): −
IL-1β: Human recombinant IL-1β from R&D Systems |  |  |  |  | inhibited the apoptotic effect of retinoids |  |  |  |  |  |  |  |  |  | 
CC1=C(/C=C/C(C)=C\C=C\C(C)=C\C(=O)O)C(C)(C)CCC1 [Compound 9cRA, 9-cis retinoic acid, reference compound] |  |  |  |  |  |  |  |  | + | ≦5% | ≦5% | 8 ± 3% | 30 ± 9% | upregulate | induction of apoptosis / death of immature LC by the substance on its own [1]: induced a similar dose- and time-dependent increase in death; class II or CD86 upregulation on immature LC ([2]; in the absence or at low concentrations of TNFα): did not significantly induce
TNFα |  |  |  |  | inhibited the pro-apoptotic effects |  |  |  |  |  |  |  |  |  | inhibition of the pro-apoptotic effects of retinol ([1]; 1 ng/ml of TNFα): > 50%; percentage of apoptotic (<2N) particles ([1]; agent + Cmpd. I 1 μM, Cmpd. II 1 μM, Cmpd. VIII 1 μM, Z-Vad 50 μM, TNFα 10 ng/ml, CD40L coculture): 11 ± 1%; percentage of apoptotic (<2N) particles ([1]; agent + Compound I 100 nM + SR11237 100 nM, Cmpd. II 1 μM, Cmpd. VIII 1 μM, Z-Vad 50 μM, TNFα 10 ng/ml, CD40L coculture): 14 ± 2%; percentage of apoptotic (<2N) particles ([1]; agent + Rol 1 μM, Cmpd. VIII 1 μM, TNFα 10 ng/ml): 4.5 ± 1%; percentage of apoptotic (<2N) particles ([1]; agent + tRA 1 μM, Cmpd. II 1 μM, Cmpd. VIII 1 μM, Z-Vad 50 μM, TNFα 10 ng/ml, CD40L coculture): 8 ± 7%; percentage of apoptotic (<2N) particles ([1]; agent alone (column 0), Cmpd. II 1 μM, Cmpd. VIII 1 μM, Z-Vad 50 μM, TNFα 10 ng/ml, CD40L coculture): ≦5%
CC1(C)CC=C(c2ccccc2)c2cc(/C=C/c3ccc(C(=O)O)cc3Cl)ccc21 [Compound III, (E)-3-Chloro-4-[2-(5,6-dihydro-5,5-dimethyl-8-phenyl-2-naphthalenyl)-ethenyl] benzoic acid] | ≦5% | ≦5% | 16 ± 3% | 30 ± 2% |  | 0 | + | 0 | 0 | ≦5% | ≦5% | ≦5% | ≦5% | weak effect; also recorded: upregulate | synergy with the pan-RXR agonist SR11237 to induce LC death [1]: synergized with the pan-RXR agonist to induce LC death
Cc1ccc(S(=O)(=O)N[C@@H](Cc2ccccc2)C(=O)CCl)cc1 [TPCK] |  |  |  |  |  |  |  |  |  |  |  |  |  |  | inhibition of the increase of class II and CD86 on LCs ([2]; LCs treated with tRA and TNFα, TPCK 10 nM): 50%; toxicity on LCs ([2]; TPCK 10 nM, LCs treated with tRA and TNFα): without any evidence of toxicity
